Laboratory results reported in patent publication US11485736B2 (KSQ Therapeutics, Inc., priority 2018, dated 2022).
Like-named read-outs stand apart in the source and are kept apart here.

Assays:
[1] = ADME solubility determination at pH 2.0 and pH 7.4; assay type: physicochemical; details: aqueous buffer, thermodynamic from solid, LC-MS/MS
How it was run: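 Dried residues of 10 mM DMSO stocks were shaken in PBS pH 7.4 or pH 2.0 for 24 hours at 25° C. and 1,100 rpm. After centrifugation, supernatants were quantified by LC-MS/MS against a standard of known concentration, applying a dilution factor.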

[2] = Liver microsomal stability, human liver microsomes; assay type: in vitro ADME; details: 1 μM compound, NADPH, read-out: t1/2 (min) in HLM
How it was run: (§1)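 Compound (1 μM final) was incubated with prewarmed human or rat liver microsomes (1 mg/mL in 100 mM phosphate master mix) plus NADPH; aliquots at 0.5–30 minutes were quenched in cold acetonitrile and quantified by LC-MS/MS. Half-life came from the ln(% remaining) versus time slope, converted to CLint (μL/min/mg prot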

[3] = Liver microsomal stability, rat liver microsomes; assay type: in vitro ADME; details: 1 μM compound, NADPH, read-out: t1/2 (min) in RLM
How it was run: as §1

[4] = PBS pH 2.0, shaken at 25° C. for 24 hours, read-out: Solubility at pH 2.0
[5] = PBS pH 7.4, shaken at 25° C. for 24 hours, read-out: Solubility at pH 7.4

CCn1cc(C(F)(F)F)nc1-c1ccc(Cn2ncc3cnc(-c4c(OC)cnn4C4CC4)nc32)cc1 [Example 82]
solubility at 24 h [1, 4]: < 10 µM
solubility at 24 h [1, 5]: < 10 µM
half-life at 1 μM [2]: < 25 min
half-life at 1 μM [3]: < 25 min

Cc1cc(C(F)(F)F)nn1-c1ccc(Cn2ncc3cnc(-c4cccnc4C#N)nc32)cc1 [Example 49]
solubility at 24 h [1, 4]: < 10 µM
solubility at 24 h [1, 5]: < 10 µM
half-life at 1 μM [2]: > 25 min
half-life at 1 μM [3]: > 25 min

[2H]C([2H])([2H])Oc1ncnc(C2CC2)c1-c1ncc2cnn(Cc3ccc(-c4nc(C(F)(F)F)cn4CC)cc3)c2n1 [Example 67]
solubility at 24 h [1, 4]: > 10 µM
solubility at 24 h [1, 5]: < 10 µM
half-life at 1 μM [2]: > 25 min
half-life at 1 μM [3]: > 25 min

[2H]C([2H])([2H])C([2H])(n1cc(C(F)(F)F)nc1-c1ccc(Cn2ncc3cnc(-c4c(OC)ncnc4C4CC4)nc32)cc1)C([2H])([2H])[2H] [Example 140]
solubility at 24 h [1, 4]: < 10 µM
solubility at 24 h [1, 5]: < 10 µM
half-life at 1 μM [2]: > 25 min
half-life at 1 μM [3]: > 25 min

Cc1cc(C(F)F)nn1-c1ccc(Cn2ncc3cnc(-c4cccnc4C(C)C)nc32)cc1 [Example 32]
solubility at 24 h [1, 4]: > 10 µM
solubility at 24 h [1, 5]: < 10 µM
half-life at 1 μM [2]: < 25 min
half-life at 1 μM [3]: < 25 min

COc1nc(C)nc(C2CC2)c1-c1ncc2cnn(Cc3ccc(-c4nc(C(F)(F)F)cn4C)cc3)c2n1 [Example 133, 6-(4-Cyclopropyl-6-methoxy-2-methylpyrimidin-5-yl)-1-(4-(1-methyl-4-(trifluoromethyl)-1H-imidazol-2-yl)benzyl)-1H-pyrazolo[3,4-d]pyrimidine]
solubility at 24 h [1, 4]: > 10 µM
solubility at 24 h [1, 5]: > 10 µM
half-life at 1 μM [2]: < 25 min
half-life at 1 μM [3]: < 25 min

COc1ncnc(C2CC2)c1-c1ncc2cnn(Cc3ccc(-c4nc(C(F)(F)F)c(OC)n4C)cc3)c2n1 [Example 165]
solubility at 24 h [1, 4]: < 10 µM
solubility at 24 h [1, 5]: < 10 µM
half-life at 1 μM [2]: > 25 min
half-life at 1 μM [3]: > 25 min

COc1ncnc(C2CC2)c1-c1ncc2nnn(Cc3ccc(-c4nc(C(F)(F)F)cn4C)cc3)c2n1 [Example 215, 5-(4-cyclopropyl-6-methoxypyrimidin-5-yl)-3-(4-(1-methyl-4-(trifluoromethyl)-1H-imidazol-2-yl)benzyl)-3H-[1,2,3]triazolo[4,5-d]pyrimidine]
solubility at 24 h [1, 4]: > 10 µM
solubility at 24 h [1, 5]: > 10 µM
half-life at 1 μM [2]: > 25 min
half-life at 1 μM [3]: < 25 min

CCn1cc(C(F)(F)F)nc1-c1ccc([C@H](C)n2ncc3cnc(-c4c(OC)ncnc4C(C)C)nc32)cc1F [Example 118]
solubility at 24 h [1, 4]: < 10 µM
solubility at 24 h [1, 5]: < 10 µM
half-life at 1 μM [2]: > 25 min
half-life at 1 μM [3]: < 25 min

COc1ncnc(C2CC2)c1-c1ncc2cnn([C@H](C)c3ccc(-c4nc(C(F)(F)F)cn4C)cc3)c2n1 (single isomer, unassigned) [Example 93]
solubility at 24 h [1, 4]: > 10 µM
solubility at 24 h [1, 5]: > 10 µM
half-life at 1 μM [2]: < 25 min
half-life at 1 μM [3]: < 25 min

COc1ncnc(C2CC2)c1-c1ncc2cnn(Cc3ccc(-c4nc(C(F)(F)F)cn4CC(C)F)cc3)c2n1 (stereo not shown) [Example 142]
solubility at 24 h [1, 4]: > 10 µM
solubility at 24 h [1, 5]: < 10 µM
half-life at 1 μM [2]: > 25 min
half-life at 1 μM [3]: < 25 min

COc1ncnc(C2CC2)c1-c1ncc2cnn(Cc3ccc(-n4nc(C(F)(F)F)cc4-c4ccco4)cc3)c2n1 [Example 30, 6-(4-cyclopropyl-6-methoxypyrimidin-5-yl)-1-(4-(5-(furan-2-yl)-3-(trifluoromethyl)-1H-pyrazol-1-yl)benzyl)-1H-pyrazolo[3,4-d]pyrimidine]
solubility at 24 h [1, 4]: < 10 µM
solubility at 24 h [1, 5]: < 10 µM
half-life at 1 μM [2]: < 25 min
half-life at 1 μM [3]: < 25 min

CCn1cc(C(F)(F)F)nc1-c1ccc([C@H](C)n2ncc3cnc(-c4c(OC)ncnc4C4CC4)nc32)cc1F [Example 96]
solubility at 24 h [1, 4]: < 10 µM
solubility at 24 h [1, 5]: < 10 µM
half-life at 1 μM [2]: > 25 min
half-life at 1 μM [3]: > 25 min

COc1ncnc(C2CC2)c1-c1ncc2cnn(Cc3ccc(-c4nc(C(F)(F)F)cn4C)c(F)c3)c2n1 [Example 17]
solubility at 24 h [1, 4]: < 10 µM
solubility at 24 h [1, 5]: < 10 µM
half-life at 1 μM [2]: > 25 min
half-life at 1 μM [3]: > 25 min

COc1ncnc(C2CC2)c1-c1ncc2cnn(Cc3ccc(-n4nc(C(F)(F)F)cc4C(C)C)cc3)c2n1 [Example 29]
solubility at 24 h [1, 4]: < 10 µM
solubility at 24 h [1, 5]: < 10 µM
half-life at 1 μM [2]: > 25 min
half-life at 1 μM [3]: > 25 min

COc1cnn(C2CC2)c1-c1ncc2cnn(Cc3ccc(-c4nc(C(F)(F)F)cn4C(C)C)cc3)c2n1 [Example 83]
solubility at 24 h [1, 4]: > 10 µM
solubility at 24 h [1, 5]: < 10 µM
half-life at 1 μM [2]: < 25 min
half-life at 1 μM [3]: < 25 min

COc1ncnc(C)c1-c1ncc2cnn(Cc3ccc(-c4nc(C(F)(F)F)cn4C)cc3)c2n1 [Example 33]
solubility at 24 h [1, 4]: > 10 µM
solubility at 24 h [1, 5]: > 10 µM
half-life at 1 μM [2]: > 25 min
half-life at 1 μM [3]: > 25 min

COCCOc1cc(C(F)(F)F)nn1-c1ccc(Cn2ncc3cnc(-c4c(OC)ncnc4C4CC4)nc32)cc1 [Example 77]
solubility at 24 h [1, 4]: < 10 µM
solubility at 24 h [1, 5]: < 10 µM
half-life at 1 μM [2]: < 25 min
half-life at 1 μM [3]: < 25 min

COc1ncnc(C2CC2)c1-c1ncc2cnn(Cc3ccc(-n4nc(C(F)(F)F)cc4C)cc3)c2n1 [Example 27]
solubility at 24 h [1, 4]: < 10 µM
solubility at 24 h [1, 5]: < 10 µM
half-life at 1 μM [2]: > 25 min
half-life at 1 μM [3]: > 25 min

COc1ncnc(OC)c1-c1ncc2cnn(Cc3ccc(-c4nc(C(F)(F)F)cn4C)cc3)c2n1 [Example 86]
solubility at 24 h [1, 4]: > 10 µM
solubility at 24 h [1, 5]: > 10 µM
half-life at 1 μM [2]: > 25 min
half-life at 1 μM [3]: > 25 min

CCn1c(-c2ccc(Cn3ncc4cnc(-c5c(OC)ncnc5C5CC5)nc43)cc2)nc(C(F)(F)F)c1OC [Example 164, 6-(4-cyclopropyl-6-methoxypyrimidin-5-yl)-1-(4-(1-ethyl-5-methoxy-4-(trifluoromethyl)-1H-imidazol-2-yl)benzyl)-1H-pyrazolo[3,4-d]pyrimidine]
solubility at 24 h [1, 4]: > 10 µM
solubility at 24 h [1, 5]: < 10 µM
half-life at 1 μM [2]: < 25 min
half-life at 1 μM [3]: < 25 min

COc1ncnc(C2CC2)c1-c1ncc2cnn(Cc3ccc(-c4nc(C(F)(F)F)cn4C4CCOC4)cc3)c2n1 (stereo not shown) [Example 146]
solubility at 24 h [1, 4]: > 10 µM
solubility at 24 h [1, 5]: > 10 µM
half-life at 1 μM [2]: < 25 min
half-life at 1 μM [3]: < 25 min

COc1ncnc(C2CC2)c1-c1ncc2cnn(Cc3ccc(-c4cn(C(C)C)c(C(F)(F)F)n4)cc3)c2n1 [Example 34]
solubility at 24 h [1, 4]: < 10 µM
solubility at 24 h [1, 5]: < 10 µM
half-life at 1 μM [2]: > 25 min
half-life at 1 μM [3]: > 25 min

COc1ncnc(C2CC2)c1-c1ncc2cnn(Cc3ccc(-n4nc(C(F)(F)F)cc4OC4CNC4)cc3)c2n1 [Example 200, 1-(4-(5-(azetidin-3-yloxy)-3-(trifluoromethyl)-1H-pyrazol-1-yl)benzyl)-6-(4-cyclopropyl-6-methoxypyrimidin-5-yl)-1H-pyrazolo[3,4-d]pyrimidine]
solubility at 24 h [1, 4]: > 10 µM
solubility at 24 h [1, 5]: > 10 µM
half-life at 1 μM [2]: > 25 min
half-life at 1 μM [3]: > 25 min

COc1ncnc(C2CC2)c1-c1ncc2cnn(Cc3ccc(-n4nc(C(F)(F)F)cc4CO)cc3)c2n1 [Example 198, (1-(4-((6-(4-cyclopropyl-6-methoxypyrimidin-5-yl)-1H-pyrazolo[3,4-d]pyrimidin-1-yl)methyl)phenyl)-3-(trifluoromethyl)-1H-pyrazol-5-yl)methanol]
solubility at 24 h [1, 4]: < 10 µM
solubility at 24 h [1, 5]: < 10 µM
half-life at 1 μM [2]: > 25 min
half-life at 1 μM [3]: > 25 min
